Series [1] can be described thus: Simulated Gastric Fluid (SGF) Assay. Type of series: in vitro ADME. As to conditions: pig, simulated gastric fluid (SGF) with porcine pepsin, pH 2; Table 4-C, t1/2. In short, it runs like this: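 Peptides at 20 μM final in simulated gastric fluid (NaCl, porcine pepsin, HCl; pH 2) at 37° C with shaking. Samples taken at 0, 15, 30 and 60 min, quenched in acetonitrile/0.1% formic acid and quantified by LC-MS/MS against internal standard, relative to time 0. Half-life from first-order exponential decay fit.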

A further series deals with T1, rh integrin α4β7 (Homo sapiens, UniProt P13612+P26010).
T1 construct: purchased R&D Systems 5397-A30
T1 sequence (P13612 34-977 limits assumed): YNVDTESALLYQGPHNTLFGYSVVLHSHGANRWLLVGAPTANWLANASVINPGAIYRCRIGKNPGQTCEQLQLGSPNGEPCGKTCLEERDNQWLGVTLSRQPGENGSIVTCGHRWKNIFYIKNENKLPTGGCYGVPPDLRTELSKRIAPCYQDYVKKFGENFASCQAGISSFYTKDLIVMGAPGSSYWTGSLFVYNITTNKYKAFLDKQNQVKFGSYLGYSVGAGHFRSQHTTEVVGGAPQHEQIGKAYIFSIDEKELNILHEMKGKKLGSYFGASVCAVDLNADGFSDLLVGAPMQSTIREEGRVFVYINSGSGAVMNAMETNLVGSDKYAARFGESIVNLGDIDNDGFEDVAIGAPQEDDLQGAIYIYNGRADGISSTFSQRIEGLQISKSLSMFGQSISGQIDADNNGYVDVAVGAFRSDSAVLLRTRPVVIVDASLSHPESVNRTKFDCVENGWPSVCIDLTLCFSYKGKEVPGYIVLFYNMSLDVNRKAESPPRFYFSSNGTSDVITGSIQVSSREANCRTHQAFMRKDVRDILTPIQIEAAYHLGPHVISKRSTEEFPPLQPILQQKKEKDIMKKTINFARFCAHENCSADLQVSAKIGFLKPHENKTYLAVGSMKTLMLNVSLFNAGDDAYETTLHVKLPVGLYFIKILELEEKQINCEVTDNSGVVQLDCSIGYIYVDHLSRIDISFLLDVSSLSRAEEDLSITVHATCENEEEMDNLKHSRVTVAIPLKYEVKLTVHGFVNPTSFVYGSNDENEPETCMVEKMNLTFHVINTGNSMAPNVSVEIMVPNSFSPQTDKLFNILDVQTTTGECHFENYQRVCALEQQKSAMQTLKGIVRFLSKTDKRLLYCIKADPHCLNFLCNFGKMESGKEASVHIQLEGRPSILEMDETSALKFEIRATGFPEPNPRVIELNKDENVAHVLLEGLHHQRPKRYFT
T1 sequence (P26010 20-723 limits assumed): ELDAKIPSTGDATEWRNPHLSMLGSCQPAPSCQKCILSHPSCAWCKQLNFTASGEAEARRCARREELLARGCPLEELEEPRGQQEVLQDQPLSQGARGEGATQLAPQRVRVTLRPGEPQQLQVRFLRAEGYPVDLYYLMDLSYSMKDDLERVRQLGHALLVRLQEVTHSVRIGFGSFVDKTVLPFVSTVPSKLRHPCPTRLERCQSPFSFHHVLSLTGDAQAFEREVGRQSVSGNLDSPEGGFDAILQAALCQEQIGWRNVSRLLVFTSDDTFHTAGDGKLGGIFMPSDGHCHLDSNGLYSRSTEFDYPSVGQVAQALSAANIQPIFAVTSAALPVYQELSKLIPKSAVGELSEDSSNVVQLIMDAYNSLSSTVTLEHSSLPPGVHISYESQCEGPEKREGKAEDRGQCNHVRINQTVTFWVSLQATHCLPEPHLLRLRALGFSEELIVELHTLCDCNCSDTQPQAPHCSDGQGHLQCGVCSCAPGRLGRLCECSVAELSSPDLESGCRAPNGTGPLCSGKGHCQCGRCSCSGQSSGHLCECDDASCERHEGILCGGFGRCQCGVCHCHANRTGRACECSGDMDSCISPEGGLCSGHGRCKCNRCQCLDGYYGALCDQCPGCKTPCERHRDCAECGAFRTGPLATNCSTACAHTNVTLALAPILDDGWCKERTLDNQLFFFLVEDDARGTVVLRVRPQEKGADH
Briefly: α4β7-MAdCAM Competition ELISA. Type of series: binding. To be noted: Table 4-B; read-out: ELISA α4β7 IC50. In short, it runs like this:
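Competition read-out was A450 after anti-human IgG1-HRP and TMB detection of bound recombinant human MAdCAM-1 (10 nM final). Peptides were serially diluted 3-fold from a final 10 μM and equilibrated 1 h at room temperature on nickel-captured α4β7 (800 ng/well). The buffer was Tris pH 7.6 with 1 mM Mn2+ or Mg2+.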
A general note: In an ELISA, binding on a coated surface is turned into a signal by an enzyme label.

Series [2] can be described thus: Dithiothreitol (DTT) Redox Stability Assay. Format: physicochemical. To be noted: Table 4-C, t1/2, 0.5 mM DTT. In short, it runs like this:
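Peptide at 50 μM final in 100 mM Tris-Cl pH 7.5 was exposed to 0.5 mM DTT at room temperature. Aliquots taken at 20, 40, 80 and 120 min were quenched with acetic acid and analysed by reverse-phase HPLC at 220 nm for remaining oxidized parent. Half-lives were obtained by first-order exponential decay fit.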

Numbered stars: 1 amine (or outer) side, 2 acyl side, 3 side chain; on linkers, the order of the positions; unused ones are H or OH. Bridge positions count the residues as written; N and C are the ends. Square brackets hold non-standard residues; d marks the D form. Peptide text beside a SMILES is read from it. I, II: the chains in the order shown. Phe(4-tBu) = CC(C)(C)c1ccc(C[C@H](N)C(=O)O)cc1; Diglycolyl = O=C(COCC(=O)[*:2])[*:1]; NMeR = CN[C@@H](CCCNC(=N)N)C(=O)O; β3hE = N[C@@H](CCC(=O)O)CC(=O)O; NMeK = CN[C@@H](CCCCN)C(=O)O; Pen = CC(C)(S)[C@H](N)C(=O)O; dNMeK = CN[C@H](CCCCN)C(=O)O

For orientation: half-life means how long it takes for the measured level to halve. A lower half-life goes with fast loss. As a reminder, the IC50 is the concentration that inhibits the measured activity by half.

As for `CC(=O)N[C@@H]1C(=O)N(C)[C@@H](CCCNC(=N)N)C(=O)N[C@@H](CO)C(=O)N[C@@H](CC(=O)O)C(=O)N[C@@H]([C@@H](C)O)C(=O)N[C@@H](CC(C)C)C(=O)N[C@H](C(=O)N[C@@H](Cc2c[nH]c3ccccc23)C(=O)N[C@@H](CCC(=O)O)C(=O)N(C)[C@H](CCCCNC(=O)COCC(=O)NCCCC[C@H](C(N)=O)N(C)C(=O)[C@H](CCC(=O)O)NC(=O)[C@H](Cc2c[nH]c3ccccc23)NC(=O)[C@H]2NC(=O)[C@H](CC(C)C)NC(=O)[C@H]([C@@H](C)O)NC(=O)[C@H](CC(=O)O)NC(=O)[C@H](CO)NC(=O)[C@H](CCCNC(=N)N)N(C)C(=O)[C@@H](NC(C)=O)C(C)(C)SSC2(C)C)C(N)=O)C(C)(C)SSC1(C)C` [compound 214, [Ac-Pen-(N-Me-Arg)-Ser-Asp-Thr-Leu-Pen-Trp-Glu-(N-Me-D-Lys)-NH2]2-DIG] (I: Ac-[Pen][NMeR]SDTL[Pen]WE[dNMeK]-NH2 / II: Ac-[Pen][NMeR]SDTL[Pen]WE[dNMeK]-NH2; disulfide I:1-I:7, II:1-II:7 (inferred); linker I:10-II:10 via Diglycolyl (inferred)), the half-life at 20 μM in series [1] was over 6 h. Also, the IC50 on rh integrin α4β7 amounted to 4.1 nM. The “DTT Min” value in series [2] is over 120 min.
Taken in the same sequence, the figures for `CC(=O)N[C@@H]1C(=O)N(C)[C@@H](CCCNC(=N)N)C(=O)N[C@@H](CO)C(=O)N[C@@H](CC(=O)O)C(=O)N[C@@H]([C@@H](C)O)C(=O)N[C@@H](CC(C)C)C(=O)N[C@H](C(=O)N[C@@H](Cc2c[nH]c3ccccc23)C(=O)N[C@@H](CCC(=O)O)C(=O)N(C)[C@@H](CCCCNC(=O)COCC(=O)NCCCC[C@@H](C(N)=O)N(C)C(=O)[C@H](CCC(=O)O)NC(=O)[C@H](Cc2c[nH]c3ccccc23)NC(=O)[C@H]2NC(=O)[C@H](CC(C)C)NC(=O)[C@H]([C@@H](C)O)NC(=O)[C@H](CC(=O)O)NC(=O)[C@H](CO)NC(=O)[C@H](CCCNC(=N)N)N(C)C(=O)[C@@H](NC(C)=O)C(C)(C)SSC2(C)C)C(N)=O)C(C)(C)SSC1(C)C` [compound 215, [Ac-Pen-(N-Me-Arg)-Ser-Asp-Thr-Leu-Pen-Trp-Glu-(N-Me-Lys)-NH2]2-DIG] (I: Ac-[Pen][NMeR]SDTL[Pen]WE[NMeK]-NH2 / II: Ac-[Pen][NMeR]SDTL[Pen]WE[NMeK]-NH2; disulfide I:1-I:7, II:1-II:7 (inferred); linker I:10-II:10 via Diglycolyl (inferred)) were over 6 h, 2.2 nM and over 120 min.
Regarding `CC(=O)N[C@@H]1C(=O)N(C)[C@@H](CCCNC(=N)N)C(=O)N[C@@H](CO)C(=O)N[C@@H](CC(=O)O)C(=O)N[C@@H]([C@@H](C)O)C(=O)N[C@@H](CC(C)C)C(=O)N[C@H](C(=O)N[C@@H](Cc2c[nH]c3ccccc23)C(=O)N[C@@H](CCC(=O)O)C(=O)N[C@H](CCCCNC(=O)COCC(=O)NCCCC[C@@H](NC(=O)[C@H](CCC(=O)O)NC(=O)[C@H](Cc2c[nH]c3ccccc23)NC(=O)[C@H]2NC(=O)[C@H](CC(C)C)NC(=O)[C@H]([C@@H](C)O)NC(=O)[C@H](CC(=O)O)NC(=O)[C@H](CO)NC(=O)[C@H](CCCNC(=N)N)N(C)C(=O)[C@@H](NC(C)=O)C(C)(C)SSC2(C)C)C(N)=O)C(N)=O)C(C)(C)SSC1(C)C` [compound 217, (Ac-Pen-N-Me-R-S-D-T-L-Pen-W-E-k-NH2)2-DIG] (I: Ac-[Pen][NMeR]SDTL[Pen]WE[dK]-NH2 / II: Ac-[Pen][NMeR]SDTL[Pen]WE[dK]-NH2; disulfide I:1-I:7, II:1-II:7 (inferred); linker I:10-II:10 via Diglycolyl (inferred)), the half-life at 20 μM in series [1] was over 6 h. Further, the IC50 at rh integrin α4β7 was found to be 2.3 nM. Also, the “DTT Min” value in series [2] was over 120 min.
The like results for `CC(=O)N[C@@H]1C(=O)N(C)[C@@H](CCCNC(=N)N)C(=O)N[C@@H](CO)C(=O)N[C@@H](CC(=O)O)C(=O)N[C@@H]([C@@H](C)O)C(=O)N[C@@H](CC(C)C)C(=O)N[C@H](C(=O)N[C@@H](Cc2ccc(C(C)(C)C)cc2)C(=O)N[C@@H](CCC(=O)O)CC(=O)N[C@H](CCCCNC(=O)COCC(=O)NCCCC[C@@H](NC(=O)C[C@H](CCC(=O)O)NC(=O)[C@H](Cc2ccc(C(C)(C)C)cc2)NC(=O)[C@H]2NC(=O)[C@H](CC(C)C)NC(=O)[C@H]([C@@H](C)O)NC(=O)[C@H](CC(=O)O)NC(=O)[C@H](CO)NC(=O)[C@H](CCCNC(=N)N)N(C)C(=O)[C@@H](NC(C)=O)C(C)(C)SSC2(C)C)C(N)=O)C(N)=O)C(C)(C)SSC1(C)C` [compound 218, [Ac-Pen-(N-Me-Arg)-Ser-Asp-Thr-Leu-Pen-Phe(4-tBu)-(β-homoGlu)-(D-Lys)-NH2]2-DIG] (I: Ac-[Pen][NMeR]SDTL[Pen][Phe(4-tBu)][β3hE][dK]-NH2 / II: Ac-[Pen][NMeR]SDTL[Pen][Phe(4-tBu)][β3hE][dK]-NH2; disulfide I:1-I:7, II:1-II:7; linker I:10-II:10 via Diglycolyl) were, in that order, over 6 h, 2.8 nM and over 120 min.

These data come from patent publication US9809623B2, “α4β7 peptide monomer and dimer antagonists” (Protagonist Therapeutics, Inc., priority 2014, dated 2017).
